pKd: −log10 of the molar value.
Assays:
CDK2 (human) [1] = target: CDK2 (human) (UniProt P24941); assay: Enzyme Assay
CDK2 (human) [2] = target: CDK2 (human) (UniProt P24941); assay: Enzyme Assay; remark: listed apart in the source

SMILES	pKd (CDK2 (human) [1])	pKd (CDK2 (human) [2])
COC[C@@H]1CCCN1c1ncnc(Nc2cccc(CS(N)(=O)=O)c2)n1	< 5.00	–
COC[C@H]1CCCCN1c1ncnc(Nc2cccc(CS(N)(=O)=O)c2)n1	< 5.00	–
NS(=O)(=O)Cc1cccc(Nc2ncnc(N3CCC[C@@H]3CN3CCCC3)n2)c1	< 5.00	–
NS(=O)(=O)Cc1cccc(Nc2ncnc(N3CCC[C@@H]3COCc3ccccc3)n2)c1	< 5.00	–
NS(=O)(=O)Cc1cccc(Nc2ncnc(N3CCc4nc[nH]c4C3)n2)c1	> 7.00	–
NS(=O)(=O)Cc1cccc(Nc2ncnc(N3Cc4ccncc4C3)n2)c1	6.00 to 7.00	–
NS(=O)(=O)Cc1cccc(Nc2ncnc(N3CCc4ccccc43)n2)c1	6.00 to 7.00	–
NS(=O)(=O)Cc1cccc(Nc2ncnc(N3CCC[C@H]3CO)n2)c1	< 5.00	–
NS(=O)(=O)Cc1cccc(Nc2ncnc(N3CCCn4nccc43)n2)c1	> 7.00	> 7.00
NS(=O)(=O)Cc1cccc(Nc2ncnc(N3CCC[C@@H]3CO)n2)c1	< 5.00	–
NS(=O)(=O)Cc1cccc(Nc2ncnc(N3Cc4cn[nH]c4C3)n2)c1	–	6.00 to 7.00
COC[C@H]1CCN1c1ncnc(Nc2cccc(CS(N)(=O)=O)c2)n1	< 5.00	–
NS(=O)(=O)Cc1cccc(Nc2ncnc(N3CCc4ncsc4C3)n2)c1	> 7.00	> 7.00
NS(=O)(=O)Cc1cccc(Nc2ncnc(N3CCCC3c3ccccc3)n2)c1 (configuration not stated)	–	< 5.00
NS(=O)(=O)Cc1cccc(Nc2ncnc(N3CCCc4ccccc43)n2)c1	6.00 to 7.00	–
NS(=O)(=O)Cc1cccc(Nc2ncnc(N3CCc4ncccc4C3)n2)c1	6.00 to 7.00	6.00 to 7.00
NS(=O)(=O)Cc1cccc(Nc2ncnc(N3CCCCC3)n2)c1	< 5.00	< 5.00
CN(C)CCC1CCCCN1c1ncnc(Nc2cccc(CS(N)(=O)=O)c2)n1 (configuration not stated)	–	< 5.00
